{"source": "patent US20220177511A1", "about": "“SERIES OF HALOGENATED TETRACYCLIC TRITERPENE DERIVATIVES AND THEIR PREPARATION AND APPLICATION” (SHANGHAI KING-X BIOTECH CO., LTD, priority 2019, published 2022)", "key": {"[1]": {"assay": "Metabolic stability in rat liver microsomes", "assay_type": "in vitro ADME", "conditions": "compared with compound 5 (cycloastragenol)"}, "[2]": {"assay": "Metabolic stability in human liver microsomes", "assay_type": "in vitro ADME", "procedure": "Preparation of the test sample: Compound 1 (prepared in Example 5), 2 (prepared in Example 4), and 5 (cycloastragenol, purchased from Chengdu Jintaihe Company) were dissolved with an appropriate amount of DMSO to obtain a concentration of 10 mM solution.\n1) The compound was diluted with DMSO to 0.5 mM, and diluted to 1/20 with PBS before the experiment.\n2) Human liver microsomes and potassium phosphate buffer were added to the EP tube respectively and mixed by gentle shaking.\n3) Pre-incubate the EP tube in a metal bath at 37° C. for 5 minutes. 4) Compound 1, 2 or 5 were added and incubated at 37° C.\n5) Take 100 μl of sample from the tube at 0, 60, 120, 240, and 360 minutes respectively, and add the sample to the stop tube (containing 100 μl of cooled acetonitrile solution). The mixture was shaken vigorously to terminate the reaction and then placed it in a −30° C. refrigerator until analysis.\n6) Centrifuge at 14300 r/min and 4° C. for 10 minutes, aspirate the supernatant and place it in a −30° C. refrigerator until analysis.\nColumn: Shim-pack XR-ODS II, 2.0×75 mm; mobile phase: mobile phase B: aqueous solution containing 0.2% formic acid; mobile phase A: acetonitrile solution; mobile phase ratio: […]"}}, "note": "“Also recorded” adds a separate entry of the source.", "data": [{"substance": "(2aR,3R,4S,5aS,5bS,7S,7aR,9R,11aR,12aS)-9-halogen-3-((2R,5S)-5-(2-hydroxypropan-2-yl)-2-methyltetrahydrofuran-2-yl)-2a,5a,8,8-tetramethyltetradecahydro-1H,12H-cyclopenta[a]cyclopropa[e]phenanthrene-4,7-diol [Compound 1]", "values": [{"measurement": "metabolic stability in rat liver microsomes", "setting": "[1]", "result": "relatively stable; also recorded: more stable than cycloastragenol"}, {"measurement": "Metabolic half-life of human liver microsomes", "setting": "[2]; 5 μM compound, 1 mg/mL microsomes, 37° C.", "result": 3.893, "unit": "h"}, {"measurement": "metabolic stability in human liver microsomes", "setting": "[2]; compared with compound 5 (cycloastragenol)", "result": "relatively stable; also recorded: more stable than cycloastragenol"}]}]}
